Source: patent US20250268971A1, “SAFFRON AS ANTI-INFLAMMATORY AGENT IN TREATING INFLAMMATORY BOWEL DISEASE” (HOWARD UNIVERSITY, priority 2020, published 2025)

System: human PBMCs T cells
Experiment: Human PBMCs T cells pro-inflammatory cytokine secretion (flow cytometry)
Format: cell-based
Procedure: A 48 well plate was coated with human anti-CD3 antibody (1 μg/ml) overnight. After washing with 1×PBS, plates were coated with human PBMCs (0.5×10^6 cells/well), human anti-CD28 (1 μg/ml), β-mercaptoethanol (1 μg/ml), different concentrations of Saffron aqueous extract (250 μg/ml, 500 μg/ml) and other constituents of saffron, Safranal (500 μM, 1 mM) (Sigma Aldrich, USA). The human PBMCS of 0.5×10^6 cells/well PBMCs were seeded in 48 well microplates in RPMI-1640 (Sigma, USA) supplemented with 10% fetal bovine serum and 1% penicillin/streptomycin at 37° C. and in 5% CO2) (day 0). At day 3, cells were stimulated with phorbol myristate acetate (PMA; 50 ng/ml)+ Ionomycin (1 μg/ml)+ Brefeldin A (1X) for 4 hrs. and cells were harvested and stained for flow cytometry. The human specific antibodies for T cells (dye; Zombi Aqua, CD45 PerCP 5.5, CD3 BV421, CD4 PETR, CD127-PECy7, CD25 BV605, CD8a AF488 and pro-inflammatory cytokines, like TNF-α AF700, IFNg APC, IL4 PE) were used to stain the PBMC cells.
In CD8+ T cells, TNFα+ expression was reduced in presence of SFE dose 500 μg/ml and safranal doses (500 μM, 1 mM) only, while IFNg+ expression was reduced in all tested doses of SFE and safranal in comparison to stimulated human PBMCs treated with media.

Compound: CC1=C(C=O)C(C)(C)CC=C1 [safranal, Safranal]
- TNFα+ expression in CD8+ T cells (SFE 500 μg/ml only, safranal 500 μM, 1 mM, vs media treated stimulated PBMC): reduced
- TNFα+ in CD4+ T cells (SFE 250 and 500 μg/ml, safranal 500 μM, 1 mM, anti-CD3/CD28, PMA+ionomycin stimulated, vs media): inhibitory response
- IFNg+ in CD4+ T cells (SFE 250 and 500 μg/ml, safranal 500 μM, 1 mM, vs media treated stimulated PBMC): inhibitory response
- IFNg+ expression in CD8+ T cells (all tested doses (SFE 250, 500 μg/ml; safranal 500 μM, 1 mM), vs media): reduced
